Measured values taken from patent publication US11464763B2, “Parasiticidal compositions comprising an isoxazoline active agent, methods and uses thereof” (BOEHRINGER INGELHEIM ANIMAL HEALTH USA INC., priority 2011, dated 2022).
In brackets after ≈: the same amount, converted by molar mass.

How the values were obtained:
R. sanguineus = experiment: Efficacious plasma concentration (EC90) against R. sanguineus ticks in dogs (Example 13); type: in vivo, Rhipicephalus sanguineus; settings: for EC90 (concentration required to achieve 90% efficacy): plasma concentration
[1] = system: Rhipicephalus (Boophilus) microplus; experiment: Pour-on tick count efficacy against Rhipicephalus (Boophilus) microplus in cattle (Example 15); type: in vivo
Procedure: The efficacy of two pour-on formulations of the invention comprising Compound A at doses of 2.5 mg/kg and 10 mg/kg were tested against infestations of Rhipicephalus (Boophilus) microplus ticks compared with an untreated control. Five healthy head of cattle of 6 to 15 months of age weighing between 100 to 200 kg were used in each study group. Cattle in Group 1 were untreated (control). Cattle in Group 2 were treated on Day 0 with a pour-on formulation comprising Compound A at a concentration of 2.5% (w/v) in DES at a dose of 2.5 mg/kg; and cattle in Group 3 were treated on Day 0 with a pour-on formulation comprising Compound A at a concentration of 10% (w/v) in DES at a dose of 10 mg/kg. Several weeks before treatment, cattle are infested three times a week with approximately 2500 Rhipicephalus (Boophilus) microplus larvae to establish ongoing infestations. Cattle in Groups 2 and 3 were treated with the respective compositions on Day 0 by measuring the required amount of the solution into a marked disposable syringe and applying the material evenly along the mid-line of the back of each animal from the withers to the tail head.
Each animal was challenged by infestation with approximately 5000 R. microplus larvae on Days 7 and 21 and every 14 days thereafter. Ticks dropping from each animal in the previous 24 hours were collected daily and counted from Day 1 until the end of the study. Since the life cycle of the ticks from the point of infestation with larvae until engorged ticks fall off is approximately 21 days (average), the assessment of efficacy for the challenges on Days 7 and 21 and every 14 days thereafter, was done for a range of 7 or 8 days starting approximately 21 days after the challenge. The assessment of efficacy at the beginning of the study was done from day 1 until Day 21.
In addition, the ticks collected were weighed as a group to measure the impact of the treatment on the weight gain of the ticks compared to the control to assess the vitality and reproductive capability of the treated ticks. […] Tables 16A and 16B show the % efficacy of the two pour-on formulations based on the weight of the ticks collected. […] As evidenced from the tables and the figures, the pour-on formulations of the invention at both 2.5 mg/kg and 10 mg/kg provide excellent efficacy against Rhipicephalus (Boophilus) microplus ticks for an extended period of time. […] Furthermore, as shown in Tables 16A and 16B, the two pour-on compositions were extremely effective against ticks based on the weight of the ticks collected. […] The extremely long lasting efficacy above 90% for pour-on composition against Rhipicephalus (Boophilus) microplus ticks is remarkable compared with pour-on formulations known in the art.

Rhipicephalus sanguineus = experiment: Spot-on efficacy against Rhipicephalus sanguineus ticks on dogs, 40% DES/DMI (Example 5); type: in vivo; settings: 4.0 mg/kg
Procedure: The efficacy of a formulation comprising an isoxazoline compound (Cmpd. A) in a carrier comprising 40% DES/DMI against Ctenocephalides felis fleas and Rhipicephalus sanguineus ticks in Dogs was studied. […] Three treatment groups containing three dogs each were evaluated. All dogs were treated once topically on Day 0 by parting the hair and applying the solution from a syringe directly onto the skin in a single spot on the midline of the neck between the base of the skull and the shoulder blades.
Treatment Group 1 was a placebo control and received 0.067 mL/kg of body weight. Treatment Group 2 was administered a topical spot-on formulation comprising 6.0% (w/v) Cmpd. A in 40% DES/DMI to deliver a dose of 4.0 mg/kg body weight. Treatment Group 3 was administered a topical spot-on formulation comprising 12% (w/v) Cmpd. A in 40% DES/DMI to deliver a dose of 4.0 mg/kg body weight.

Ixodes ricinus = experiment: Spot-on efficacy against induced Ixodes ricinus tick infestations in cats (Example 10); type: in vivo; settings: for prevention of the infestation of I. ricinus: 2.5% w/v in DMI
Procedure: The efficacy of spot-on formulations comprising Cmpd. A were studied against induced infestations of Ixodes ricinus ticks in cats. Three treatment groups with six cats per group were randomly allocated: Group 1—Control, untreated; Group 2—Cmpd. A (2.5% w/v in DMI) at 0.1 ml/kg body weight (2.5 mg/kg); and Group 3—Cmpd. A (5.0% w/v in DMI) at 0.1 ml/kg body weight (5 mg/kg). Treatment was administered once on Day 0 and efficacy was assessed based on 48-hour tick (I. ricinus) counts following weekly experimental challenge from Day 7 on. […] In fact, the topical spot-on formulation offered substantial protection against I. ricinus ticks until the last day of assessment—Day 93. Due to limitations on tick availability 5 mg/kg was tested only up to Day 44 with 100% efficacy. The excellent long-lasting efficacy of the formulation of the invention against I. ricinus ticks in cats is very surprising and unexpected.

## O=C(CNC(=O)c1ccc(C2=NOC(c3cc(Cl)cc(C(F)(F)F)c3)(C(F)(F)F)C2)c2ccccc12)NCC(F)(F)F (centres unmarked) [Compound A, 4-[5-[3-chloro-5-(trifluoromethyl)phenyl]-4,5-dihydro-5-(trifluoromethyl)-3-isoxazolyl]-N-[2-oxo-2-[(2,2,2-trifluoroethyl)amino]ethyl]-1-naphthalanecarboxamide]
R. sanguineus; dogs, topical vs oral
  concentration required to achieve 90% efficacy, lower than the concentration required from oral administration: ~32%
R. sanguineus; oral dosage form
  EC90 (concentration required to achieve 90% efficacy): 0.101 µg/mL (≈ 0.161 µM)
R. sanguineus; topical, separate study
  EC90 (concentration required to achieve 90% efficacy): 0.069 µg/mL (≈ 0.11 µM)
[1]; Group 2: pour-on 2.5% (w/v) in DES, 2.5 mg/kg, Day 1-21
  Average % Efficacy (Tick Count): 58.8%
[1]; Group 2: pour-on 2.5% (w/v) in DES, 2.5 mg/kg, Day 28-34, Challenge Day 7
  Average % Efficacy (Tick Count): 75.6%
[1]; Group 2: pour-on 2.5% (w/v) in DES, 2.5 mg/kg, Day 41-48, Challenge Day 21
  Average % Efficacy (Tick Count): 77.0%
[1]; Group 2: pour-on 2.5% (w/v) in DES, 2.5 mg/kg, Day 55-62, Challenge Day 35
  Average % Efficacy (Tick Count): 91.2%
[1]; Group 2: pour-on 2.5% (w/v) in DES, 2.5 mg/kg, Day 69-76, Challenge Day 49
  Average % Efficacy (Tick Count): 88.3%
[1]; Group 2: pour-on 2.5% (w/v) in DES, 2.5 mg/kg, Day 83-90, Challenge Day 63
  Average % Efficacy (Tick Count): 90.7%
[1]; Group 2: pour-on 2.5% (w/v) in DES, 2.5 mg/kg, Day 97-104, Challenge Day 77
  Average % Efficacy (Tick Count): 79.8%
[1]; Group 2: pour-on 2.5% (w/v) in DES, 2.5 mg/kg, Day 111-118, Challenge Day 91
  Average % Efficacy (Tick Count): 79.0%
[1]; Group 2: pour-on 2.5% (w/v) in DES, 2.5 mg/kg, Day 132-139, Challenge Day 112
  Average % Efficacy (Tick Count): 86.2%
[1]; Group 2: pour-on 2.5% (w/v) in DES, 2.5 mg/kg, Day 146-153, Challenge Day 126
  Average % Efficacy (Tick Count): 30.3%
[1]; Group 2: pour-on 2.5% (w/v) in DES, 2.5 mg/kg, Day 160-167, Challenge Day 140
  Average % Efficacy (Tick Count): 74.0%
[1]; Group 3: pour-on 10% (w/v) in DES, 10 mg/kg, Day 1-21
  Average % Efficacy (Tick Count): 78.1%
[1]; Group 3: pour-on 10% (w/v) in DES, 10 mg/kg, Day 28-34, Challenge Day 7
  Average % Efficacy (Tick Count): 92.0%
[1]; Group 3: pour-on 10% (w/v) in DES, 10 mg/kg, Day 41-48, Challenge Day 21
  Average % Efficacy (Tick Count): 98.0%
[1]; Group 3: pour-on 10% (w/v) in DES, 10 mg/kg, Day 55-62, Challenge Day 35
  Average % Efficacy (Tick Count): 97.8%
[1]; Group 3: pour-on 10% (w/v) in DES, 10 mg/kg, Day 69-76, Challenge Day 49
  Average % Efficacy (Tick Count): 99.3%
[1]; Group 3: pour-on 10% (w/v) in DES, 10 mg/kg, Day 83-90, Challenge Day 63
  Average % Efficacy (Tick Count): 98.9%
[1]; Group 3: pour-on 10% (w/v) in DES, 10 mg/kg, Day 97-104, Challenge Day 77
  Average % Efficacy (Tick Count): 92.4%
[1]; Group 3: pour-on 10% (w/v) in DES, 10 mg/kg, Day 111-118, Challenge Day 91
  Average % Efficacy (Tick Count): 96.6%
[1]; Group 3: pour-on 10% (w/v) in DES, 10 mg/kg, Day 132-139, Challenge Day 112
  Average % Efficacy (Tick Count): 92.4%
[1]; Group 3: pour-on 10% (w/v) in DES, 10 mg/kg, Day 146-153, Challenge Day 126
  Average % Efficacy (Tick Count): 72.4%
[1]; Group 3: pour-on 10% (w/v) in DES, 10 mg/kg, Day 160-167, Challenge Day 140
  Average % Efficacy (Tick Count): 85.8%
[1]; pour-on 2.5 mg/kg and 10 mg/kg, for at least day 139
  tick count efficacy: above 90%
Rhipicephalus sanguineus; Group 2: 6.0% in 40% DES/DMI, Day 2
  % Reduction: 100.0%
Rhipicephalus sanguineus; Group 2: 6.0% in 40% DES/DMI, Day 30
  % Reduction: 91.5%
Rhipicephalus sanguineus; Group 2: 6.0% in 40% DES/DMI, Day 31
  % Reduction: 100.0%
Rhipicephalus sanguineus; Group 2: 6.0% in 40% DES/DMI, Day 38
  % Reduction: 85.2%
Rhipicephalus sanguineus; Group 3: 12% in 40% DES/DMI, Day 2
  % Reduction: 100.0%
Rhipicephalus sanguineus; Group 3: 12% in 40% DES/DMI, Day 30
  % Reduction: 72.6%
Rhipicephalus sanguineus; Group 3: 12% in 40% DES/DMI, Day 31
  % Reduction: 100.0%
Rhipicephalus sanguineus; Group 3: 12% in 40% DES/DMI, Day 38
  % Reduction: 51.3%
Ixodes ricinus; 5 mg/kg, up to Day 44
  efficacy against I. ricinus: 100%
Ixodes ricinus; 2.5 mg/kg, until Day 56
  prevention of the infestation of I. ricinus: completely prevented
Ixodes ricinus; 2.5 mg/kg, until at least Day 77
  prevention of the infestation of I. ricinus: > 90%
Ixodes ricinus; Group 2: 2.5% w/v in DMI, 2.5 mg/kg, Day 2
  % Reduction Ticks: 23.71%
Ixodes ricinus; Group 2: 2.5% w/v in DMI, 2.5 mg/kg, Day 9
  % Reduction Ticks: 100.00%
Ixodes ricinus; Group 2: 2.5% w/v in DMI, 2.5 mg/kg, Day 23
  % Reduction Ticks: 99.60%
Ixodes ricinus; Group 2: 2.5% w/v in DMI, 2.5 mg/kg, Day 30
  % Reduction Ticks: 100.00%
Ixodes ricinus; Group 2: 2.5% w/v in DMI, 2.5 mg/kg, Day 37
  % Reduction Ticks: 99.58%
Ixodes ricinus; Group 2: 2.5% w/v in DMI, 2.5 mg/kg, Day 44
  % Reduction Ticks: 100.00%
Ixodes ricinus; Group 2: 2.5% w/v in DMI, 2.5 mg/kg, Day 51
  % Reduction Ticks: 100.00%
Ixodes ricinus; Group 2: 2.5% w/v in DMI, 2.5 mg/kg, Day 58
  % Reduction Ticks: 100.00%
Ixodes ricinus; Group 2: 2.5% w/v in DMI, 2.5 mg/kg, Day 65
  % Reduction Ticks: 99.02%
Ixodes ricinus; Group 2: 2.5% w/v in DMI, 2.5 mg/kg, Day 72
  % Reduction Ticks: 99.21%
Ixodes ricinus; Group 2: 2.5% w/v in DMI, 2.5 mg/kg, Day 79
  % Reduction Ticks: 95.54%
Ixodes ricinus; Group 2: 2.5% w/v in DMI, 2.5 mg/kg, Day 86
  % Reduction Ticks: 84.92%
Ixodes ricinus; Group 2: 2.5% w/v in DMI, 2.5 mg/kg, Day 93
  % Reduction Ticks: 76.65%
Ixodes ricinus; Group 3: 5.0% w/v in DMI, 5 mg/kg, Day 2
  % Reduction Ticks: 70.27%
Ixodes ricinus; Group 3: 5.0% w/v in DMI, 5 mg/kg, Day 9
  % Reduction Ticks: 100.00%
Ixodes ricinus; Group 3: 5.0% w/v in DMI, 5 mg/kg, Day 23
  % Reduction Ticks: 100.00%
Ixodes ricinus; Group 3: 5.0% w/v in DMI, 5 mg/kg, Day 30
  % Reduction Ticks: 100.00%
Ixodes ricinus; Group 3: 5.0% w/v in DMI, 5 mg/kg, Day 37
  % Reduction Ticks: 100.00%
Ixodes ricinus; Group 3: 5.0% w/v in DMI, 5 mg/kg, Day 44
  % Reduction Ticks: 100.00%
